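Cultured in 96-well plates, cells were exposed to test compound for 48 hours across five concentrations. GI50 = concentration required for 50% inhibition of growth. The concentration for full growth arrest is given as TGI.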

Test systems include COLO 205 colon; RPMI-8226 leukemia; UACC-62 melanoma; NCI-H460 lung; HOP-62 NSCLC; CCRF-CEM leukemia; 786-0 renal; DU-145 prostate; UACC-257 melanoma; TK-10 renal.
Holding throughout (experiment): NCI anticancer screen, dose series, 48 h

With `O=[N+]([O-])c1ccc2[nH]cc(-c3c4ccsc4cc4[nH]c5ccc([N+](=O)[O-])cc5c34)c2c1`, the GI50 in the test with COLO 205 colon is 0.796 µM; in the test on RPMI-8226 leukemia, 1.04 µM; with UACC-62 melanoma, 0.641 µM; in the test on NCI-H460 lung, 0.922 µM; in the test on HOP-62 NSCLC it was 1.13 µM; in the test with CCRF-CEM leukemia, 1.05 µM. The GI50 in the test on 786-0 renal is 0.877 µM; in the test on DU-145 prostate, 0.833 µM; in the test on UACC-257 melanoma, 2.92 µM; in the test with TK-10 renal, 2.85 µM. The TGI was found to be 2.42 µM in the test on COLO 205 colon; 5.1 µM in the test on RPMI-8226 leukemia; 8.01 µM in the test with UACC-62 melanoma; 4.13 µM in the test with NCI-H460 lung; 9.25 µM with HOP-62 NSCLC; 23.3 µM with CCRF-CEM leukemia. Besides, the TGI in the test on 786-0 renal was 3.52 µM; in the test with DU-145 prostate, 2.69 µM; in the test with UACC-257 melanoma, 10.5 µM; with TK-10 renal it was 18.5 µM.

Take `C=CC(=O)N1CCCC(n2nc(-c3ccc(Oc4ccccc4)cc3)c3c(N)ncnc32)C1` (stereo not given): the GI50 in the test on COLO 205 colon was 14.1 µM; with RPMI-8226 leukemia, 6.57 µM; with UACC-62 melanoma, 2.36 µM; in the test with NCI-H460 lung, 14.3 µM; in the test with HOP-62 NSCLC, 12.9 µM; with CCRF-CEM leukemia, 8.02 µM. For the same compound, the GI50 with 786-0 renal was 1.86 µM; in the test with DU-145 prostate, 1.89 µM; with UACC-257 melanoma it was 6.82 µM; in the test with TK-10 renal, 0.0615 µM. In addition, the TGI turned out to be 28.5 µM in the test on COLO 205 colon; 31.2 µM with RPMI-8226 leukemia; 14.6 µM in the test on UACC-62 melanoma; 31 µM in the test with NCI-H460 lung; 26.1 µM in the test with HOP-62 NSCLC; 42.6 µM in the test on CCRF-CEM leukemia. Moreover, the TGI with 786-0 renal was determined as 16.6 µM; in the test on DU-145 prostate, 17.4 µM; in the test with UACC-257 melanoma, 20.5 µM; in the test with TK-10 renal, 3.94 µM.

Turning to `c1ccc2c(c1)[I+]c1ccccc1-2`, the GI50 in the test on COLO 205 colon is above 50 µM; in the test on RPMI-8226 leukemia, 31.7 µM; with UACC-62 melanoma it was above 50 µM; with NCI-H460 lung, 33.9 µM; in the test on HOP-62 NSCLC, 28 µM; in the test with CCRF-CEM leukemia, above 50 µM. Further, the GI50 in the test with 786-0 renal is above 50 µM; in the test with DU-145 prostate, 35.6 µM; with UACC-257 melanoma, above 50 µM; in the test with TK-10 renal it was above 50 µM. For the same compound, the TGI with COLO 205 colon, in the test on RPMI-8226 leukemia, with UACC-62 melanoma, in the test on NCI-H460 lung, in the test with HOP-62 NSCLC and with CCRF-CEM leukemia was above 50 µM in each case. For the same compound, the TGI with 786-0 renal, with DU-145 prostate, in the test with UACC-257 melanoma and in the test with TK-10 renal was above 50 µM throughout.

With `O=C1c2cc(Br)ccc2-c2c1c1ccc([N+](=O)[O-])cc1c(=O)n2CCCCl`, the GI50 in the test with COLO 205 colon was 1.39 µM; in the test with RPMI-8226 leukemia, below 0.0289 µM; in the test with UACC-62 melanoma, 0.0264 µM; in the test on NCI-H460 lung, below 0.01 µM; in the test on HOP-62 NSCLC it was 0.837 µM; in the test with CCRF-CEM leukemia, below 0.01 µM. Also, the GI50 with 786-0 renal was 0.659 µM; in the test with DU-145 prostate, 0.0849 µM; in the test on UACC-257 melanoma, 0.287 µM; with TK-10 renal it was 13.8 µM. Further, the TGI with COLO 205 colon is above 100 µM; with RPMI-8226 leukemia, 0.647 µM; in the test with UACC-62 melanoma, 1.08 µM; in the test with NCI-H460 lung, 5.4 µM; with HOP-62 NSCLC, 8.28 µM; in the test with CCRF-CEM leukemia it was 0.245 µM. Besides, the TGI was 2.26 µM in the test with 786-0 renal, 20.1 µM in the test with DU-145 prostate, 2.85 µM with UACC-257 melanoma and above 57.2 µM with TK-10 renal.

`O=C1C=C(c2c(O)ccc3ccccc23)c2ccccc2C1=O`: the TGI with COLO 205 colon was determined as 21.7 µM; in the test on RPMI-8226 leukemia it was 15.7 µM; with UACC-62 melanoma it was 5.48 µM; in the test on NCI-H460 lung, 26.8 µM; in the test on HOP-62 NSCLC, 33.5 µM; with CCRF-CEM leukemia, 7.55 µM. The TGI in the test on 786-0 renal came to 4.89 µM; with DU-145 prostate, 24 µM; in the test on UACC-257 melanoma, 6.49 µM; in the test with TK-10 renal it was 25.8 µM.

With `COc1ccc2c(c1)C(=O)CC(N)C2` (stereo not given), the TGI in the test with COLO 205 colon, with RPMI-8226 leukemia, in the test with UACC-62 melanoma, in the test on NCI-H460 lung, in the test with HOP-62 NSCLC and in the test with CCRF-CEM leukemia was above 100 µM throughout. Further, the TGI in the test on 786-0 renal, in the test on DU-145 prostate, in the test with UACC-257 melanoma and in the test with TK-10 renal was above 100 µM throughout.

`CC1=CSC2=NC(c3ccc(Cl)c(Cl)c3)=CC(c3ccc(Cl)cc3)N12` (stereo not given): the GI50 with COLO 205 colon, in the test on RPMI-8226 leukemia, in the test on UACC-62 melanoma, with NCI-H460 lung, in the test with HOP-62 NSCLC and in the test with CCRF-CEM leukemia was above 100 µM in each case. The GI50 with 786-0 renal, in the test on DU-145 prostate, in the test on UACC-257 melanoma and with TK-10 renal was above 100 µM throughout. For the same compound, the TGI in the test with COLO 205 colon, with RPMI-8226 leukemia, in the test on UACC-62 melanoma, with NCI-H460 lung, in the test with HOP-62 NSCLC and in the test with CCRF-CEM leukemia was above 100 µM in each case. The TGI in the test on 786-0 renal, with DU-145 prostate, with UACC-257 melanoma and with TK-10 renal was above 100 µM each time.

On to `O=C(Nc1ccc(Cl)cc1)Nc1ccc(Cl)c(Cl)c1`, for which the GI50 in the test on COLO 205 colon was 1.85 µM; in the test with RPMI-8226 leukemia it was 1.61 µM; in the test with UACC-62 melanoma, 5.59 µM; in the test on NCI-H460 lung, 2.77 µM; with HOP-62 NSCLC, 4.7 µM; with CCRF-CEM leukemia it was 2.25 µM. The GI50 in the test on 786-0 renal was 4.43 µM; in the test on DU-145 prostate it was 4.08 µM; with UACC-257 melanoma, 3.76 µM; with TK-10 renal, 7.64 µM. The TGI in the test with COLO 205 colon was 3.42 µM; in the test on RPMI-8226 leukemia, 4.73 µM; with UACC-62 melanoma, above 100 µM; in the test on NCI-H460 lung, 12.6 µM; with HOP-62 NSCLC it was above 100 µM; in the test on CCRF-CEM leukemia it was 7.8 µM. Moreover, the TGI with 786-0 renal, with DU-145 prostate, in the test with UACC-257 melanoma and in the test with TK-10 renal was above 100 µM each time.

Take `Oc1ccc(N=Nc2ccc(Cl)cc2)cc1`: the TGI is 33.4 µM in the test with COLO 205 colon; 80.4 µM in the test on RPMI-8226 leukemia; 36.4 µM with UACC-62 melanoma; 34.2 µM in the test on NCI-H460 lung; 35.6 µM with HOP-62 NSCLC; above 100 µM in the test on CCRF-CEM leukemia. Besides, the TGI amounted to 31.5 µM with 786-0 renal, 30.8 µM in the test on DU-145 prostate, 31.5 µM in the test on UACC-257 melanoma and 33.8 µM in the test on TK-10 renal.

In the case of `CCCCCCNC(=O)C1=C(C)NC(C)=C(C(=O)NCCCCCC)C1`, the TGI in the test with COLO 205 colon, with RPMI-8226 leukemia, in the test on UACC-62 melanoma, in the test with NCI-H460 lung, in the test with HOP-62 NSCLC and with CCRF-CEM leukemia was above 100 µM each time. For the same compound, the TGI in the test with 786-0 renal, in the test on DU-145 prostate, in the test on UACC-257 melanoma and in the test with TK-10 renal was above 100 µM throughout.

On to `CCCCNc1nc(NC(C)(C)C)nc(NC(C)(C)C)n1`, for which the GI50 in the test on COLO 205 colon is 4.44 µM; in the test with RPMI-8226 leukemia, 1.4 µM; with UACC-62 melanoma, 3.25 µM; with NCI-H460 lung, 5.13 µM; in the test on HOP-62 NSCLC, 18.7 µM; in the test with CCRF-CEM leukemia, 3.18 µM. In addition, the GI50 in the test with 786-0 renal was 30.7 µM; in the test on DU-145 prostate, 8.82 µM; in the test on UACC-257 melanoma, 81.3 µM; in the test with TK-10 renal it was 52.6 µM. Moreover, the TGI in the test with COLO 205 colon, in the test with RPMI-8226 leukemia, with UACC-62 melanoma, in the test on NCI-H460 lung, with HOP-62 NSCLC and in the test on CCRF-CEM leukemia was above 100 µM in each case. In addition, the TGI with 786-0 renal, in the test on DU-145 prostate, with UACC-257 melanoma and in the test with TK-10 renal was above 100 µM each time.

Take `O=C(O)C1CCc2ccc3ccccc3c2C1c1cccc2ccccc12` (stereo not given): the TGI with COLO 205 colon was 77.7 µM; with RPMI-8226 leukemia, above 100 µM; in the test with UACC-62 melanoma it was 29.4 µM; in the test with NCI-H460 lung, 38.2 µM; with HOP-62 NSCLC, 35.9 µM; with CCRF-CEM leukemia it was 50.7 µM. Besides, the TGI in the test with 786-0 renal was 38.2 µM; with DU-145 prostate, 68.8 µM; in the test on UACC-257 melanoma, 59.4 µM; in the test on TK-10 renal, above 100 µM.

These data come from PubChem BioAssay (NCI).
